For this assay, the target named is T1, BRD9 (Homo sapiens, UniProt Q9H8M2).
T1 sequence (Q9H8M2 1-597): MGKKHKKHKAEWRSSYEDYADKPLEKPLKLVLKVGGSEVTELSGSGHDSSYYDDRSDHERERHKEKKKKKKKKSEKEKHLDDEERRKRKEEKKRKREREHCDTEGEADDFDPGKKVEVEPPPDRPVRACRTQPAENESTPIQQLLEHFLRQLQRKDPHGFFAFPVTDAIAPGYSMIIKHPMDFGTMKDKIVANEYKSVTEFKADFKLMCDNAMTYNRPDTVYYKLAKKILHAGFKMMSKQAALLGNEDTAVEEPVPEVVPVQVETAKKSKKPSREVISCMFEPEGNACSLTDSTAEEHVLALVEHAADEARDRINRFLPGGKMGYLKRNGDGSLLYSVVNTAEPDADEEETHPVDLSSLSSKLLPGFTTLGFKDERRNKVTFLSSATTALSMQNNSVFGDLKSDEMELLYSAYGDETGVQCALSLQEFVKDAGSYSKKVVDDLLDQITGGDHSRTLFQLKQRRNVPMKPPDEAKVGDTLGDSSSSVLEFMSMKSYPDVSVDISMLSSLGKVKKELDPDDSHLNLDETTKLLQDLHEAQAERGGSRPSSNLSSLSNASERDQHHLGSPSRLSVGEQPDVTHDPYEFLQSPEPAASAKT
The experiment in a line: Degradation of BRD9 (IF), immunofluorescence in MV4-11 cells, 24 hours (Assay Protocol 2). The format is cell-based. Further details: A suspension of MV4-11 cells (ATCC CRL-9591) was prepared; host or cells: MV4-11. Particulars: BRD9 degradation; for DC50: Assay protocol 2, read-out: DC50; for Dmax: MV4-11, Assay protocol 2, read-out: Dmax. The gist of the method:
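% BRD9 remaining, scaled between DMSO (high) and 100 nM CFT-8634 (low) control wells, derives from mean Alexa 647 contrast in central nuclei by high-content imaging. MV4-11 cells had 24 h compound exposure at 37° C. before PFA fixation, Triton permeabilisation and anti-BRD9 E4Q3F immunostaining.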

One may read the DC50 as the concentration giving 50% degradation. In general, Dmax refers to the largest share of the target that was removed. Turning to `COc1cc(-c2cn(C)c(=O)c(C)c2C)cc(OC)c1CN1C[C@H](C)N(Cc2cccc3c2CCN(C(=O)/C(C#N)=C/C(C)(C)C)C3C(C)C)C[C@H]1C` (mixture of isomers) [Compound C12, (E/Z)-2-(5-(((2S,5R)-4-(2,6-dimethoxy-4-(1,4,5-trimethyl-6-oxo-1,6-dihydropyridin-3-yl)benzyl)-2,5-dimethylpiperazin-1-yl)methyl)-1-isopropyl-1,2,3,4-tetrahydroisoquinoline-2-carbonyl)-4,4-dimethylpent-2-enenitrile], the DC50 is 25 to 1000 nM and the Dmax was 70 to 75%.
On the same counts, the results for `COc1cc(-c2cn(C)c(=O)c(C)c2C)cc(OC)c1CN1CCN(Cc2cccc3c2CCN(C(=O)/C(C#N)=C/C(C)(C)C)C3C(F)F)C2(CC2)C1` (mixture of isomers) [Compound C13] are < 1.25 nM and > 75%.
Turning to `COc1cc(-c2cn(C)c(=O)c(C)c2C)cc(OC)c1CN1CCN(Cc2cccc3c2CCN(C(=O)/C(C#N)=C/C(C)(C)C)C3C(C)C)[C@@H](C)C1` (mixture of isomers) [Compound C14, (E/Z)-2-(5-(((S)-4-(2,6-dimethoxy-4-(1,4,5-trimethyl-6-oxo-1,6-dihydropyridin-3-yl)benzyl)-2-methylpiperazin-1-yl)methyl)-1-isopropyl-1,2,3,4-tetrahydroisoquinoline-2-carbonyl)-4,4-dimethylpent-2-enenitrile], the DC50 is 25 to 1000 nM and the Dmax is > 75%.
Turning to `CCC1c2cccc(CN3CCN(Cc4c(OC)cc(-c5cn(C)c(=O)c(C)c5C)cc4OC)CC34CC4)c2CCN1C(=O)/C(C#N)=C/C(C)(C)C` (mixture of isomers) [Compound C15, (E/Z)-2-(5-((7-(2,6-dimethoxy-4-(1,4,5-trimethyl-6-oxo-1,6-dihydropyridin-3-yl)benzyl)-4,7-diazaspiro[2.5]octan-4-yl)methyl)-1-ethyl-1,2,3,4-tetrahydroisoquinoline-2-carbonyl)-4,4-dimethylpent-2-enenitrile], the DC50 was < 1.25 nM and the Dmax was > 75%.
Consider `COc1cc(-c2cn(C)c(=O)c(C)c2C)cc(OC)c1CN1CCN(Cc2cccc3c2CCN(C(=O)/C(C#N)=C/C(C)(C)C)C3C2CC2)C2(CC2)C1` (mixture of isomers) [Compound C16, (E/Z)-2-(1-cyclopropyl-5-((7-(2,6-dimethoxy-4-(1,4,5-trimethyl-6-oxo-1,6-dihydropyridin-3-yl)benzyl)-4,7-diazaspiro[2.5]octan-4-yl)methyl)-1,2,3,4-tetrahydroisoquinoline-2-carbonyl)-4,4-dimethylpent-2-enenitrile], for which the DC50 was < 1.25 nM and the Dmax is > 75%.
For `CCCC1c2cccc(CN3CCN(Cc4c(OC)cc(-c5cn(C)c(=O)c(C)c5C)cc4OC)CC34CC4)c2CCN1C(=O)/C(C#N)=C/C(C)(C)C` (mixture of isomers) [Compound C17, (E/Z)-2-(5-((7-(2,6-dimethoxy-4-(1,4,5-trimethyl-6-oxo-1,6-dihydropyridin-3-yl)benzyl)-4,7-diazaspiro[2.5]octan-4-yl)methyl)-1-propyl-1,2,3,4-tetrahydroisoquinoline-2-carbonyl)-4,4-dimethylpent-2-enenitrile], the DC50 is 1.25 to 10 nM and the Dmax was > 75%.
In the same order, the values of `COCC1(OC)c2cccc(CN3CCN(Cc4c(OC)cc(-c5cn(C)c(=O)c(C)c5C)cc4OC)CC34CC4)c2CCN1C(=O)/C(C#N)=C/C(C)(C)C` (mixture of isomers) [Compound C18, (E/Z)-2-(5-((7-(2,6-dimethoxy-4-(1,4,5-trimethyl-6-oxo-1,6-dihydropyridin-3-yl)benzyl)-4,7-diazaspiro[2.5]octan-4-yl)methyl)-1-methoxy-1-(methoxymethyl)-1,2,3,4-tetrahydroisoquinoline-2-carbonyl)-4,4-dimethylpent-2-enenitrile] are 1.25 to 10 nM and > 75%.
On to `COc1cc(-c2cn(C)c(=O)c(C)c2C)cc(OC)c1CN1CCN(Cc2cccc3c2CCN(C(=O)/C(C#N)=C/c2cccc(Br)n2)C3C(C)C)CC1` (mixture of isomers) [Compound C21, (E/Z)-3-(6-bromopyridin-2-yl)-2-(5-((4-(2,6-dimethoxy-4-(1,4,5-trimethyl-6-oxo-1,6-dihydropyridin-3-yl)benzyl)piperazin-1-yl)methyl)-1-isopropyl-1,2,3,4-tetrahydroisoquinoline-2-carbonyl)acrylonitrile], for which the DC50 fell in the range of 1.25 to 10 nM and the greatest degradation seen (Dmax) is 70 to 75%.
For the compound `COc1cc(-c2cn(C)c(=O)c(C)c2C)cc(OC)c1CN1CCN(Cc2cccc3c2CCN(C(=O)/C(C#N)=C/C(C)C)C3C(C)C)CC1` (mixture of isomers) [Compound C22, (E/Z)-2-(5-((4-(2,6-dimethoxy-4-(1,4,5-trimethyl-6-oxo-1,6-dihydropyridin-3-yl)benzyl)piperazin-1-yl)methyl)-1-isopropyl-1,2,3,4-tetrahydroisoquinoline-2-carbonyl)-4-methylpent-2-enenitrile], the DC50 was 1.25 to 10 nM and the Dmax was > 75%.
For `COc1cc(-c2cn(C)c(=O)c(C)c2C)cc(OC)c1CN1CCN(Cc2cccc3c2CCN(C(=O)/C(C#N)=C/C2(C)CCOCC2)C3C(C)C)C2(CC2)C1` (mixture of isomers) [Compound C23, (E/Z)-2-(5-((7-(2,6-dimethoxy-4-(1,4,5-trimethyl-6-oxo-1,6-dihydropyridin-3-yl)benzyl)-4,7-diazaspiro[2.5]octan-4-yl)methyl)-1-isopropyl-1,2,3,4-tetrahydroisoquinoline-2-carbonyl)-3-(4-methyltetrahydro-2H-pyran-4-yl)acrylonitrile], the DC50 is < 1.25 nM and the Dmax was > 75%.
With `COc1cc(-c2cn(C)c(=O)c(C)c2C)cc(OC)c1CN1CCN(Cc2cccc3c2CCN(C(=O)/C(C#N)=C/C(C)(C)CF)C3C(C)C)C2(CC2)C1` (mixture of isomers) [Compound C24, (E/Z)-2-(5-((7-(2,6-dimethoxy-4-(1,4,5-trimethyl-6-oxo-1,6-dihydropyridin-3-yl)benzyl)-4,7-diazaspiro[2.5]octan-4-yl)methyl)-1-isopropyl-1,2,3,4-tetrahydroisoquinoline-2-carbonyl)-5-fluoro-4,4-dimethylpent-2-enenitrile], the DC50 was < 1.25 nM and the Dmax is > 75%.
Consider `COc1cc(-c2cn(C)c(=O)c(C)c2C)cc(OC)c1CN1CCN(Cc2cccc3c2CCN(C(=O)/C(C#N)=C/C(C)(C)CF)C3C(C)C)CC12CC2` (mixture of isomers) [Compound C25, (E/Z)-2-(5-((4-(2,6-dimethoxy-4-(1,4,5-trimethyl-6-oxo-1,6-dihydropyridin-3-yl)benzyl)-4,7-diazaspiro[2.5]octan-7-yl)methyl)-1-isopropyl-1,2,3,4-tetrahydroisoquinoline-2-carbonyl)-5-fluoro-4,4-dimethylpent-2-enenitrile], for which the DC50 is 1.25 to 10 nM and the Dmax was > 75%.
For `COc1cc(-c2cn(C)c(=O)c(C)c2C)cc(OC)c1CN1CCN(Cc2cccc3c2CCN(C(=O)/C(C#N)=C/c2cccc(Br)n2)C3C)C2(CC2)C1` (mixture of isomers) [Compound C29], the DC50 was in the range of 1.25 to 10 nM and the Dmax lay within 70 to 75%.
`COc1cc(-c2cn(C)c(=O)c(C)c2C)cc(OC)c1CN1CCN(Cc2cccc3c2CCN(C(=O)/C(C#N)=C/C(C)(C)F)[C@H]3C)C2(CC2)C1` (mixture of isomers) [Compound C30]: the DC50 was 25 to 1000 nM and the Dmax lay within 40 to 70%.
